Patent publication US6492378B1, “Substituted isoquinoline derivatives and their use as anticonvulsivants” (SmithKline Beecham p.l.c., priority 1998, dated 2002)

Each compound was assayed on maximal electroshock seizure (MEST) threshold in rodents (assay: MEST test (maximal electroshock seizure threshold)). Conditions: 2 mg/kg p.o. at 2 h post-dose.
Assay type: in vivo
Method: 2. MEST Test The maximal electroshock seizure (MEST) threshold test in rodents is particularly sensitive for detecting potential anticonvulsant properties^1. In this model, anticonvulsant agents elevate the threshold to electrically-induced seizures whilst proconvulsants lower the seizure threshold. Method for Mouse Model Mice (naive male, Charles River, U.K. CD-1 strain, 25-30 g) are randomly assigned to groups of 10-20 and dosed orally or intraperitoneally at a dose volume of 10 ml/kg with various doses of compound (0.3-300 mg/kg) or vehicle. Mice are then subjected at 30 or 60 min post dose to a single electroshock (0.1 sec, 50 Hz, sine wave form) administered via corneal electrodes. The mean current and standard error required to induce a tonic seizure in 50% (CC50) of the mice in a particular treatment group is determined by the ‘up and down’ method of Dixon and Mood (1948)^2. Statistical comparisons between vehicle- and drug-treated groups are made using the method of Litchfield and Wilcoxon (1949)^3. In control animals the CC50 is usually 14-18 mA. […] If a tonic convulsion does occur, then the current is decreased, and so on until all the animals in the group have been tested. Studies are carried out using a Hugo Sachs Electronik Constant Current Shock Generator with totally variable control of shock level from 0 to 300 mA and steps of 2 mA are usually used. Method for Rat Model The threshold for maximal (tonic hindlimb extension) electroshock seizures in male rats (Sprague Dawley, 80-150 g, 6 weeks old) was determined by a Hugo Sachs Electronik stimulator which delivered a constant current (0.3 sec duration; from 1-300 mA in steps of 5-20 mA). The procedure is similar to that outlined above for mouse and full details are as published by Upton et al,.^4 The percentage increase or decrease in CC50 for each group compared to the control is calculated. Drugs are suspended in 1% methyl cellulose.

Q: `COc1ccc(C(=O)Nc2ccc3c(c2)CN(C)CC3(C)C)cc1Br` [Example E15, N-(2,4,4-Trimethyl-1,2,3,4-tetrahydroisoquinolin-7-yl)-3-bromo-4-methoxybenzamide] was tested. Which “% increases in seizure threshold” value did it give?
A: The value was 263%.

Q: `COc1ccc(C(=O)Nc2ccc3c(c2)CN(C)CC3(C)C)cc1I` [Example E17, N-(2,4,4-Trimethyl-1,2,3,4-tetrahydroisoquinolin-7-yl)-3-iodo-4-methoxybenzamide] was tested. Which “% increases in seizure threshold” value did it give?
A: Its value is 314%.

Q: Which “% increases in seizure threshold” value does the source give for `COc1cc(OC(C)C)c(Cl)cc1C(=O)Nc1cccc2c1C(C)(C)CN(C)C2` [Example E29, N-(2,4,4-Trimethyl-1,2,3,4-tetrahydroisoquinolin-5-yl)-5-chloro-2-methoxy-4-iso-propyloxybenzamide] here?
A: Its value is 310%.

Q: For `COc1cc(C(C)C)c(C(F)(F)F)cc1C(=O)Nc1cccc2c1C(C)(C)CN(C)C2` [Example E34, N-(2,4,4-Trimethyl-1,2,3,4-tetrahydroisoquinolin-5-yl)-2-methoxy-4-iso-propyl-5-trifluoromethylbenzamide], which “% increases in seizure threshold” value is on record?
A: Its value is 280%.

Q: With `CCc1c(NC(=O)c2ccc(OC(C)C)c(C(C)=O)c2)ccc2c1CN(C)CC2(C)C` [Example E48, N-(8-Ethyl-2,4,4-trimethyl-1,2,3,4-tetrahydroisoquinolin-7-yl)-3-acetyl-4-iso-propyloxybenzamide] as the compound, how does the “% increases in seizure threshold” value read?
A: The value was 240%.

Q: Which “% increases in seizure threshold” value does the source give for `COc1ccc(C(=O)Nc2ccc3c(c2)CN(C)C(C)(C)C3)cc1C(F)(F)F` [Example E69, N-(2,3,3-Trimethyl-1,2,3,4-tetrahydroisoquinolin-7-yl)4-methoxy-3-trifluoromethylbenzamide] here?
A: Its value is 340%.
